Measured values from patent publication US4659717A, “Dihydropyridines useful in the treatment of angina and stroke” (Eli Lilly and Company, priority 1985, dated 1987).

Tested on: Dog Coronary Artery
Test: Dog coronary artery test: relaxation of KCl-contracted coronary artery rings
Format: cell-based
Details: Canis lupus familiaris, coronary artery rings contracted with 50 mM KCl, 37° C.; IC50 = 50% relaxation; mean values, probit analysis
Protocol: Mongrel dogs of either sex and weighing 15 to 30 kg were anesthetized with pentobarbital (35 mg/kg). Each heart was quickly removed through a right thoracotomy and placed in Kreb's bicarbonate solution of the following composition (mM/L): NaCl, 118.2; KCl, 4.6; CaCl2.2H2 O, 1.6; KH2 PO4, 1.2; MgSO4.7H2 O, 1.2; NaHCO3, 24.8; and dextrose, 10.0. The medium was kept at room temperature and saturated with 95% O2 /5% CO2. The left anterior descending and circumflex coronary arteries were isolated and used either immediately or stored overnight at 5° C. Arteries were cut into rings approximately 2 to 3 mm wide, placed on 2 L-shaped hooks and mounted in a 10 ml organ bath by attaching one hook to a stationary glass rod and the other hook to a force-displacement transducer. Tissue medium consisted of Kreb's bicarbonate solution maintained at 37° C. and bubbled with 95 % O2 /5% CO2. Artery rings were equilibrated for 1-2 hours under a resting tension of 3 g. Tissue medium was then changed to one containing 50 mM KCl and 72.8 mM NaCl but otherwise identical to Kreb's bicarbonate solution. After tissues achieved a steady state contractile tension (1-2 hours) a given test agent was added to each bath and concentration-response curves determined. […] At the end of the concentration-response curve, tissue medium was changed to one identical to the 50 mM KCl buffer but containing 2.5 mM EGTA and no CaCl2.2H2 O to obtain complete relaxation of the tissue. Percent relaxation was then determined for each concentration and values producing 50% relaxation (IC50) were estimated using a probit analysis.

| IC50 | SMILES |
| --- | --- |
| 316 nM | COC(=O)C1=C(C)NC(C)=C(C(=O)OCCC#N)C1c1csc2ccncc12 (centres unmarked) [Example 34, 1,4-Dihydro-2,6-dimethyl-4-thieno[3,2-c]pyridin-3-yl-3,5-pyridinedicarboxylic acid, 2-cyanoethyl methyl ester] |
| 398 nM | CC1=C(C(=O)OC(C)C)C(c2csc3ccncc23)C(C(=O)OC(C)C)=C(C)N1 [Example 7, 1,4-Dihydro-2,6-dimethyl-4-thieno[3,2-c]pyridin-3-yl-3,5-pyridinedicarboxylic acid, diisopropyl ester] |
| 251 nM | COC(=O)C1=C(C)NC(C)=C(C(=O)OC(C)C)C1c1csc2ccccc12 (centres unmarked) [Example 38, 4-Benzo[b]thien-3-yl-1,4-dihydro-2,6-dimethyl-3,5-pyridinedicarboxylic acid, methyl 1-methylethyl ester] |
| 83.2 nM | CCOC(=O)C1=C(C)NC(C)=C(C(=O)OCC)C1c1nccc2ccsc12 [Example 24, 1,4-Dihydro-2,6-dimethyl-4-thieno[2,3-c]pyridin-7-yl-3,5-pyridinedicarboxylic acid, diethyl ester] |
| 49 nM | COC(=O)C1=C(C)NC(C)=C(C(=O)OC(C)c2ccccc2)[C@@H]1c1csc2ccncc12 (stereo partly drawn) [Example 47, (R)-1,4-Dihydro-2,6-dimethyl-4-thieno[3,2-c]pyridin-3-yl-3,5-pyridinedicarboxylic acid, methyl 1-phenylethyl ester] |
| 70.8 nM | COC(=O)C1=C(C)NC(C)=C(C(=O)OCC2CC2)C1c1csc2cnccc12 (centres unmarked) [Example 44, 1,4-Dihydro-2,6-dimethyl-4-thieno[2,3-c]pyridin-3-yl-3,5-pyridinedicarboxylic acid, cyclopropylmethyl methyl ester] |
| 251 nM | COC(=O)C1=C(C)NC(C)=C(C(=O)OCCC#N)C1c1csc2ccccc12 (centres unmarked) [Example 35, 4-Benzo[b]thien-3-yl-1,4-dihydro-2,6-dimethyl-3,5-pyridinecarboxylic acid, 2-cyanoethyl methyl ester] |
| 110000 nM | CCOC(=O)C1=C(C)NC(C)=C(C(=O)OCC)C1c1cc2ccccc2s1 [Example 1, 4-Benzo[b]thien-2-yl-1,4-dihydro-2,6-dimethyl-3,5-pyridinedicarboxylic acid, diethyl ester] |
| 83.2 nM | COC(=O)C1=C(C)NC(C)=C(C(=O)OCC2CC2)C1c1csc2cccnc12 (centres unmarked) [Example 46, 1,4-Dihydro-2,6-dimethyl-4-thieno[3,2-b]pyridin-3-yl-3,5-pyridinedicarboxylic acid, cyclopropylmethyl methyl ester] |
| 3160 nM | CCOC(=O)C1=C(C)NC(C)=C(C(=O)OCC)C1c1csc2ccc(Cl)cc12 [Example 4, 4-(5-Chlorobenzo[b]thien-3-yl)-1,4-dihydro-2,6-dimethyl-3,5-pyridinedicarboxylic acid, diethyl ester] |
| 229 nM | CCOC(=O)C1=C(C)NC(C)=C(C(=O)OCC)C1c1csc2ccc([N+](=O)[O-])cc12 [Example 26, 1,4-Dihydro-2,6-dimethyl-4-(5-nitrobenzo[b]thien-3-yl)-3,5-pyridinedicarboxylic acid, diethyl ester] |
| 3470 nM | CCOC(=O)C1=C(C)NC(C)=C(C(=O)OCCN(C)Cc2ccccc2)C1c1csc2ccccc12 (centres unmarked) [Example 18, 4-Benzo[b]thien-3-yl-1,4-dihydro-2,6-dimethyl-3,5-pyridinedicarboxylic acid, 3-ethyl 5-(2-[methyl(phenylmethyl)amino]ethyl)ester] |
| 61.7 nM | COCCOC(=O)C1=C(C)NC(C)=C(C(=O)OC)C1c1csc2ccncc12 (centres unmarked) [Example 21, 1,4-Dihydro-2,6-dimethyl-4-thieno[3,2-c]pyridine-3-yl-3,5-pyridinedicarboxylic acid, 3-methyl 5-(2-methoxyethyl)ester] |
| 151 nM | CCOC(=O)C1=C(C)NC(C)=C(C(=O)OCC)C1c1cccc2sccc12 [Example 55, 4-(Benzo[b]thien-4-yl)-1,4-dihydro-2,6-dimethyl-3,5-pyridinedicarboxylic a cid, diethyl ester] |
